Experimental data taken from patent US20210085582A1, “SYNERGISTIC ANTIOXIDANT ACID COMPOUND ASSOCIATIONS” (L'OREAL, priority 2019, published 2021).

Assay: oxygen radical absorbance capacity (ORAC) assay, antioxidant (AOX) strength testing
Conditions: 0.5% ferulic acid, 0.5% salicylic acid
Source text: The peroxyl radical, generated from the thermal decomposition of 2,2'-azobis-2-methyl-propanimidamide dihydrochloride (AAPH), will quench a fluorescent probe by a hydrogen atom transfer reaction. In the presence of an antioxidant, however, the molecule will initially block or prevent the quenching of the probe, causing a delay in the fluorescence decay profile. The area under the fluorescence decay curves for samples with and without the presence of an antioxidant are compared to that of a standard reference material and the peroxyl radical antioxidant capacity is determined. References disclosing ORAC assays include Cao G, Alessio H, Cutler R (1993). “Oxygen-radical absorbance capacity assay for antioxidants”. Free Radic Biol Med 14 (3): 303-11; Ou B, Hampsch-Woodill M, Prior R (2001). “Development and validation of an improved oxygen radical absorbance capacity assay using fluorescein as the fluorescent probe”. J Agric Food Chem 49 (10): 4619-26; Huang D, Ou B, Prior R (2005). “The chemistry behind antioxidant capacity assays”. J. Agric. Food Chem. 53 (6): 1841-56; and Garrett A R, Murray B K, Robison […] (2010). “Measuring antioxidant capacity using the ORAC and TOSC assays”. Advanced Protocols in Oxidative Stress II: Methods in Molecular Biology (series), Donald J Armstrong (ed) 594: 251-62.

| Structure (SMILES) | effect on overall antioxidant capacity of the association (1% gallic acid added to 15% ascorbic acid) | effect on overall antioxidant capacity of the association (5% gallic acid added to 15% ascorbic acid) | contribution to antioxidant potential of the association (Zinc PCA 0.5% added to compositions with 15% ascorbic acid) |
| --- | --- | --- | --- |
| O=C(O)c1cc(O)c(O)c(O)c1 [gallic acid, 3,4,5-trihydroxybenzoic acid] | modest | significant | – |
| O=C1CC[C@@H](C(=O)[O-])N1.O=C1CC[C@@H](C(=O)[O-])N1.[Zn+2] [Zinc PCA] | – | – | not found to be a contributing factor |
